Assays:
Type in all cases: functional
MDA-MB-468 = experiment: Cytotoxicity against Homo sapiens (human) MDA-MB-468 cells after 48 hr by SRB assay; conditions: MDA-MB-468, 48 h
BT-549 = experiment: Cytotoxicity against Homo sapiens (human) BT549 cells after 48 hr by SRB assay; conditions: BT-549, 48 h
Hs-578T = experiment: Cytotoxicity against Homo sapiens (human) Hs578T cells after 48 hr by SRB assay
MDA-MB-231 = experiment: Cytotoxicity against Homo sapiens (human) MDA-MB-231 cells after 48 hr by SRB assay; conditions: MDA-MB-231, 48 h
TK-10 = experiment: Cytotoxicity against Homo sapiens (human) TK10 cells after 48 hr by SRB assay; conditions: TK-10, 48 h
UO-31 = experiment: Cytotoxicity against Homo sapiens (human) UO31 cells after 48 hr by SRB assay; conditions: UO-31, 48 h
SN12C = experiment: Cytotoxicity against Homo sapiens (human) SN12C cells after 48 hr by SRB assay
RXF 393 = experiment: Cytotoxicity against Homo sapiens (human) RXF393 cells after 48 hr by SRB assay; conditions: RXF 393, 48 h
ACHN = experiment: Cytotoxicity against Homo sapiens (human) ACHN cells after 48 hr by SRB assay
A498 = experiment: Cytotoxicity against Homo sapiens (human) A498 cells after 48 hr by SRB assay; conditions: A498, 48 h
786-0 = experiment: Cytotoxicity against Homo sapiens (human) 786-0 cells after 48 hr by SRB assay; conditions: 786-0, 48 h
SK-OV-3 = experiment: Cytotoxicity against Homo sapiens (human) SKOV3 cells after 48 hr by SRB assay; conditions: SK-OV-3, 48 h
OVCAR-8 = experiment: Cytotoxicity against Homo sapiens (human) OVCAR8 cells after 48 hr by SRB assay; conditions: OVCAR-8, 48 h
NCI/ADR-RES = experiment: Cytotoxicity against Homo sapiens (human) NCI/ADR-RES cells after 48 hr by SRB assay
OVCAR-4 = experiment: Cytotoxicity against Homo sapiens (human) OVCAR4 cells after 48 hr by SRB assay; conditions: OVCAR-4, 48 h
IGROV-1 = experiment: Cytotoxicity against Homo sapiens (human) IGROV1 cells after 48 hr by SRB assay; conditions: IGROV-1, 48 h
UACC-257 = experiment: Cytotoxicity against Homo sapiens (human) UACC257 cells after 48 hr by SRB assay; conditions: UACC-257, 48 h
UACC-62 = experiment: Cytotoxicity against Homo sapiens (human) UACC62 cells after 48 hr by SRB assay; conditions: UACC-62, 48 h
SK-MEL-28 = experiment: Cytotoxicity against Homo sapiens (human) SK-MEL-28 cells after 48 hr by SRB assay; conditions: SK-MEL-28, 48 h
SK-MEL-5 = experiment: Cytotoxicity against Homo sapiens (human) SK-MEL-5 cells after 48 hr by SRB assay; conditions: SK-MEL-5, 48 h
M14 = experiment: Cytotoxicity against Homo sapiens (human) M14 cells after 48 hr by SRB assay; conditions: M14, 48 h
MDA-MB-435 = experiment: Cytotoxicity against Homo sapiens (human) MDA-MB-435 cells after 48 hr by SRB assay; conditions: MDA-MB-435, 48 h
U-251 = experiment: Cytotoxicity against Homo sapiens (human) U251 cells after 48 hr by SRB assay; conditions: U-251, 48 h
LOX IMVI = experiment: Cytotoxicity against Homo sapiens (human) LOXIMVI cells after 48 hr by SRB assay
SF-539 = experiment: Cytotoxicity against Homo sapiens (human) SF539 cells after 48 hr by SRB assay; conditions: SF-539, 48 h
SF-268 = experiment: Cytotoxicity against Homo sapiens (human) SF268 cells after 48 hr by SRB assay; conditions: SF-268, 48 h
SF-295 = experiment: Cytotoxicity against Homo sapiens (human) SF295 cells after 48 hr by SRB assay; conditions: SF-295, 48 h
HT-29 = experiment: Cytotoxicity against Homo sapiens (human) HT-29 cells after 48 hr by SRB assay; conditions: HT-29, 48 h
COLO 205 = experiment: Cytotoxicity against Homo sapiens (human) COLO205 cells after 48 hr by SRB assay; conditions: COLO 205, 48 h
NCI-H522 = experiment: Cytotoxicity against Homo sapiens (human) NCI-H522 cells after 48 hr by SRB assay; conditions: NCI-H522, 48 h
NCI-H322M = experiment: Cytotoxicity against Homo sapiens (human) NCI-H322M cells after 48 hr by SRB assay
EKVX = experiment: Cytotoxicity against Homo sapiens (human) EKVX cells after 48 hr by SRB assay
A549 = experiment: Cytotoxicity against Homo sapiens (human) A549 cells after 48 hr by SRB assay; conditions: A549, 48 h
[1] = Cytotoxicity against Homo sapiens (human) breast cancer cells assessed as cell growth at 10^-5 M after 48 hr by SRB assay relative to control; conditions: Cancer cell lines, read-out: Activity
[2] = Cytotoxicity against Homo sapiens (human) prostate cancer cells assessed as cell growth at 10^-5 M after 48 hr by SRB assay relative to control; conditions: Cancer cell lines, read-out: Activity
[3] = Cytotoxicity against Homo sapiens (human) ovarian cancer cells assessed as cell growth at 10^-5 M after 48 hr by SRB assay relative to control; conditions: Cancer cell lines, read-out: Activity
[4] = Cytotoxicity against Homo sapiens (human) melanoma cells assessed as cell growth at 10^-5 M after 48 hr by SRB assay relative to control; conditions: read-out: Activity
[5] = Cytotoxicity against Homo sapiens (human) CNSC cells assessed as cell growth at 10^-5 M after 48 hr by SRB assay relative to control; conditions: read-out: Activity
[6] = Cytotoxicity against Homo sapiens (human) NSCLC cells assessed as cell growth at 10^-5 M after 48 hr by SRB assay relative to control; conditions: read-out: Activity
[7] = Cytotoxicity against Homo sapiens (human) leukemia cells assessed as cell growth at 10^-5 M after 48 hr by SRB assay relative to control; conditions: read-out: Activity
HL-60(TB) = experiment: Cytotoxicity against Homo sapiens (human) HL-60(TB) cells after 48 hr by SRB assay; conditions: HL-60, 48 h
NCI-H460 = experiment: Cytotoxicity against Homo sapiens (human) NCI-H460 cells after 48 hr by SRB assay; conditions: NCI-H460, 48 h
NCI-H226 = experiment: Cytotoxicity against Homo sapiens (human) NCI-H226 cells after 48 hr by SRB assay; conditions: NCI-H226, 48 h
NCI-H23 = experiment: Cytotoxicity against Homo sapiens (human) NCI-H23 cells after 48 hr by SRB assay; conditions: NCI-H23, 48 h
HOP-62 = experiment: Cytotoxicity against Homo sapiens (human) HOP62 cells after 48 hr by SRB assay; conditions: HOP-62, 48 h

`N#Cc1ccc(NC(=O)Nc2nc3ccc(OC(F)(F)F)cc3s2)cc1` showed a GI50 (MDA-MB-468) of 0.457 µM, a GI50 (BT-549) of 2.75 µM and a GI50 (Hs-578T) of 1.78 µM. It also gave a GI50 (MDA-MB-231) of 0.933 µM, a GI50 (TK-10) of 1.23 µM and a GI50 (UO-31) of 1.66 µM. The GI50 (SN12C) was 1.58 µM, the GI50 (RXF 393) was 1.86 µM and the GI50 (ACHN) was 0.724 µM. The GI50 (A498) was 0.468 µM, the GI50 (786-0) was 2 µM and the GI50 (SK-OV-3) was 2.63 µM. It also gave a GI50 (OVCAR-8) of 2 µM, a GI50 (NCI/ADR-RES) of 1.55 µM and a GI50 (OVCAR-4) of 1.62 µM. The GI50 (IGROV-1) was 2 µM, the GI50 (UACC-257) was 1.35 µM and the GI50 (UACC-62) was 0.741 µM. The GI50 (SK-MEL-28) was 2.29 µM, the GI50 (SK-MEL-5) was 1.15 µM and the GI50 (M14) was 2.4 µM. For the same compound, the GI50 (MDA-MB-435) was 1.41 µM, the GI50 (U-251) was 1.41 µM and the GI50 (LOX IMVI) was 1.48 µM. It also gave a GI50 (SF-539) of 2.88 µM, a GI50 (SF-268) of 3.09 µM and a GI50 (SF-295) of 1.17 µM. For the same compound, the GI50 (HT-29) was 2.09 µM, the GI50 (COLO 205) was 1.7 µM and the GI50 (NCI-H522) was 0.427 µM. For the same compound, the GI50 (NCI-H322M) was 2.4 µM, the GI50 (EKVX) was 1.35 µM and the GI50 (A549) was 1.2 µM. The growth at 10 µM [1] was -5.18%, the growth at 10 µM [2] was 13% and the growth at 10 µM [3] was 8.95%. For the same compound, the growth at 10 µM [4] was -9.77%, the growth at 10 µM [5] was 2.6% and the growth at 10 µM [6] was -6.18%. For the same compound, the growth at 10 µM [7] was -17.4%, the GI50 (HL-60(TB)) was 2.45 µM and the GI50 (NCI-H460) was 0.603 µM. It also gave a GI50 (NCI-H226) of 2 µM, a GI50 (NCI-H23) of 0.575 µM and a GI50 (HOP-62) of 2.51 µM.

Reference: ChEMBL document CHEMBL3046368, “Synthesis of benzothiazole derivatives and their biological evaluation as anticancer agents” (2012)
